Experimental data as given in US20240299387A1, “HETEROCYCLIC EGFR INHIBITORS FOR USE IN THE TREATMENT OF CANCER” (Blueprint Medicines Corporation, priority 2021, published 2024).
Read-outs that look alike come from different tables or passages of the source.

Experiments:
EGFR (L858R T790M C797S) = target: T1, EGFR (L858R T790M C797S) (Homo sapiens, UniProt P00533, C797S/L858R/T790M); experiment: Biochemical EGFR inhibition assay (Caliper mobility shift), EGFR LRTMCS mutant
T1 construct: purchased SignalChem E10-122VG
T1 sequence (P00533 25-1210 T790M/C797S/L858R): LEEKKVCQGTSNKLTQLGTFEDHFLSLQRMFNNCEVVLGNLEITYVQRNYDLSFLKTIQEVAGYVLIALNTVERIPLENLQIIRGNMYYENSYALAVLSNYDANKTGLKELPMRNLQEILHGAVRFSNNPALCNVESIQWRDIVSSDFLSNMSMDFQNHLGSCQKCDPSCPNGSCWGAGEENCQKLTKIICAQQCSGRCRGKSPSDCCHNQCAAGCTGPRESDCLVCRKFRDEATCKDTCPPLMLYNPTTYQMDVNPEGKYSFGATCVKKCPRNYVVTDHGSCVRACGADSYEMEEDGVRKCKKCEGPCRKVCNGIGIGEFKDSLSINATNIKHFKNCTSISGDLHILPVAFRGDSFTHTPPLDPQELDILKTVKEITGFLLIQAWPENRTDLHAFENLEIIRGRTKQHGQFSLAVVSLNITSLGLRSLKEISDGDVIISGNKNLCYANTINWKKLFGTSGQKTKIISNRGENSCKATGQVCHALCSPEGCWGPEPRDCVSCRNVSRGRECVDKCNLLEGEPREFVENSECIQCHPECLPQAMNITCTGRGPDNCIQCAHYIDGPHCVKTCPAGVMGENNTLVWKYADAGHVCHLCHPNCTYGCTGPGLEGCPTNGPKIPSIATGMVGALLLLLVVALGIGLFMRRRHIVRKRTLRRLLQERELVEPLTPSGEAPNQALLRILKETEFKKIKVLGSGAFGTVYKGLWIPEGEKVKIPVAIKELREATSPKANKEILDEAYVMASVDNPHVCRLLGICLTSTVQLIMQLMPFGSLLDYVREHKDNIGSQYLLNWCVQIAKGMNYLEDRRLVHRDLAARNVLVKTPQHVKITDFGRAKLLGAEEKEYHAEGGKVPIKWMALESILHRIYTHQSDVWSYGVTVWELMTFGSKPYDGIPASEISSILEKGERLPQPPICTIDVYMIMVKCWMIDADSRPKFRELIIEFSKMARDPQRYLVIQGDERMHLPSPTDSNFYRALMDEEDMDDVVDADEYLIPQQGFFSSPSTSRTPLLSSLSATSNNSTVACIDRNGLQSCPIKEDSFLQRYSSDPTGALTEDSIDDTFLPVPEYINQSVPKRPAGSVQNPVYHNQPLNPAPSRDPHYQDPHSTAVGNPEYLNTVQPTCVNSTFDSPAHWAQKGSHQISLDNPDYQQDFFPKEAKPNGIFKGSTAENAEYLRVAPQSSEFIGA
Outline: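 Kinase reactions at 25 °C run to 10–20% peptide phosphorylation, stopped with 35 mM EDTA. Phosphorylated product and substrate separated electrophoretically by mobility shift. Apparent IC50 from percent activity versus log compound concentration.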

[1] = target: T2, EGFR L858R T790M in NCI-H1975 cell line (Homo sapiens, UniProt P00533, L858R/T790M); experiment: NCI-H1975 pEGFR AlphaLISA assay; format: cell-based; settings: NCI-H1975 cells (EGFR L858R T790M), p-EGFR (Tyr1068), 4-5 hours incubation; read-out: Ext pEGFR H1975 GMean IC50 (nM) Protocol: @Pharmaron AlphaLISA (Num)
T2 construct: host or cells: NCI-H1975
T2 sequence (P00533 25-1210 T790M/L858R): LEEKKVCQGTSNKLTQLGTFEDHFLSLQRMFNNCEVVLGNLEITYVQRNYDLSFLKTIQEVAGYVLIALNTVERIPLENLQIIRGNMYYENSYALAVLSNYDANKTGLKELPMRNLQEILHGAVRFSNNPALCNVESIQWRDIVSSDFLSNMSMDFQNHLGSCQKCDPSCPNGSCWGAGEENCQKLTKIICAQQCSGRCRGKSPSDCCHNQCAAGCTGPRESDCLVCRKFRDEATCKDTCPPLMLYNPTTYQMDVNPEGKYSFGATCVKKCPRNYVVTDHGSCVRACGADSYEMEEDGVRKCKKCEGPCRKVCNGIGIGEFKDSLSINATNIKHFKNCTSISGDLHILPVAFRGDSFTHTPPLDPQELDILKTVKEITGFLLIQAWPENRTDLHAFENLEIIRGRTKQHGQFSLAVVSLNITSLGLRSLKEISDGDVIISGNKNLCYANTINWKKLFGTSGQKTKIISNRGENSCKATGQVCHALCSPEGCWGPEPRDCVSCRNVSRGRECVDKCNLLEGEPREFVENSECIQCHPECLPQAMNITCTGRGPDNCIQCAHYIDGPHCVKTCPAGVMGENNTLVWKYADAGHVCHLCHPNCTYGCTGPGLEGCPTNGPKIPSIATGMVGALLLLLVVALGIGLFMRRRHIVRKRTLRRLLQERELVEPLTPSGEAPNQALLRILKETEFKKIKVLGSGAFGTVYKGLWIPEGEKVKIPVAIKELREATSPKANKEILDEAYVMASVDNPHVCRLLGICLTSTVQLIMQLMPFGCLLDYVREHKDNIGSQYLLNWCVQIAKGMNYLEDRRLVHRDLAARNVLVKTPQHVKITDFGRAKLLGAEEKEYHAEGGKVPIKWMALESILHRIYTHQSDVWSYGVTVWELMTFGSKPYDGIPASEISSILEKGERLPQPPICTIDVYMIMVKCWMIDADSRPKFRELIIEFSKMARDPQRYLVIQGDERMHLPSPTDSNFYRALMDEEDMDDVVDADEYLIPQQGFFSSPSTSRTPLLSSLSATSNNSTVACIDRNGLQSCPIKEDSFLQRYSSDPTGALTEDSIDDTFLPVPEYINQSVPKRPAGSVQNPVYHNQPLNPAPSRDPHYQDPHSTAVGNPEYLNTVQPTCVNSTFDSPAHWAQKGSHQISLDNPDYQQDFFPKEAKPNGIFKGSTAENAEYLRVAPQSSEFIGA
Outline: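 Phospho-EGFR measured by AlphaLISA after overnight donor-bead incubation; IC50 from percent pEGFR inhibition versus log concentration.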

[2] = LRTMCS (PH) IC50 (nM) @ 1 mM ATP (Num)
[3] = read-out: LRTMCS (PH) IC50 (nM) @ 1 mM ATP (Num)

SMILES | IC50 (EGFR (L858R T790M C797S); [2]) | IC50 [1] | IC50 (EGFR (L858R T790M C797S); [3])
CO[C@H]1CCN(c2nccc(Nc3cc4c(C(C)C)ccc(OCC5CN(C(C)=O)C5)c4cn3)n2)C[C@@H]1O (single isomer, unassigned) [Example 57, 1-(3-(((3-((2-((3S,4S)-3-hydroxy-4-methoxypiperidin-1-yl)pyrimidin-4-yl)amino)-5-isopropylisoquinolin-8-yl)oxy)methyl)azetidin-1-yl)ethan-1-one or 1-(3-(((3-((2-((3R,4R)-3-hydroxy-4-methoxypiperidin-1-yl)pyrimidin-4-yl)amino)-5-isopropylisoquinolin-8-yl)oxy)methyl)azetidin-1-yl)ethan-1-one] | 15 to 20 nM | > 50 nM | 
CC(C)c1ccc(OC[C@H](C)n2cnnc2)c2cnc(Nc3ccnc(N4CC[C@](C)(O)[C@H](F)C4)n3)cc12 [Example 36, (3R,4S)-1-(4-((8-((S)-2-(4H-1,2,4-triazol-4-yl)propoxy)-5-isopropylisoquinolin-3-yl)amino)pyrimidin-2-yl)-3-fluoro-4-methylpiperidin-4-ol] | 15 to 20 nM | > 50 nM | 
CC(C)c1ccc(OCCc2ccnn2C)c2cnc(Nc3ccnc(N4CC[C@](C)(O)[C@H](F)C4)n3)cc12 [Example 34, (3R,4S)-3-fluoro-1-(4-((5-isopropyl-8-(2-(1-methyl-1H-pyrazol-5-yl)ethoxy)isoquinolin-3-yl)amino)pyrimidin-2-yl)-4-methylpiperidin-4-ol] | 15 to 20 nM | > 50 nM | 
CO[C@@H]1CCN(c2nccc(Nc3cc4c(C(C)C)ccc(OCC5CN(C(C)=O)C5)c4cn3)n2)C[C@@H]1O (single isomer, unassigned) [Example 56, 1-(3-(((3-((2-((3S,4R)-3-hydroxy-4-methoxypiperidin-1-yl)pyrimidin-4-yl)amino)-5-isopropylisoquinolin-8-yl)oxy)methyl)azetidin-1-yl)ethan-1-one or 1-(3-(((3-((2-((3R,4S)-3-hydroxy-4-methoxypiperidin-1-yl)pyrimidin-4-yl)amino)-5-isopropylisoquinolin-8-yl)oxy)methyl)azetidin-1-yl)ethan-1-one] | < 15 nM | 30 to 50 nM | 
CC(C)c1cnc(C(=O)N[C@H]2C[C@@](C)(O)C2)c2cnc(Nc3ccnc(N4CC[C@@H](O)[C@@](C)(F)C4)n3)cc12 [Example 83, 6-((2-((3S,4R)-3-fluoro-4-hydroxy-3-methylpiperidin-1-yl)pyrimidin-4-yl)amino)-N-((1s,3s)-3-hydroxy-3-methylcyclobutyl)-4-isopropyl-2,7-naphthyridine-1-carboxamide] | < 15 nM | 30 to 50 nM | 
CC(C)c1cnc(C(=O)NC2CS(=O)(=O)C2)c2cnc(Nc3ccnc(N4CC[C@@H](O)[C@@](C)(F)C4)n3)cc12 [Example 76, N-(1,1-dioxidothietan-3-yl)-6-((2-((3S,4R)-3-fluoro-4-hydroxy-3-methylpiperidin-1-yl)pyrimidin-4-yl)amino)-4-isopropyl-2,7-naphthyridine-1-carboxamide] | < 15 nM | 30 to 50 nM | 
[2H]C([2H])([2H])O[C@H]1CCN(c2nccc(Nc3cc4c(C(C)C)ccc(OC[C@H]5CCC(=O)N5C)c4cn3)n2)C[C@H]1F [Example 46, (R)-5-(((3-((2-((3R,4S)-3-fluoro-4-(methoxy-d3)piperidin-1-yl)pyrimidin-4-yl)amino)-5-isopropylisoquinolin-8-yl)oxy)methyl)-1-methylpyrrolidin-2-one] | 15 to 20 nM | > 50 nM | 
CC(C)c1cnc(C(=O)N[C@H]2C[C@@H](C#N)C2)c2cnc(Nc3ccnc(N4CC[C@@H](O)[C@@](C)(F)C4)n3)cc12 [Example 81, N-((1r,3r)-3-cyanocyclobutyl)-6-((2-((3S,4R)-3-fluoro-4-hydroxy-3-methylpiperidin-1-yl)pyrimidin-4-yl)amino)-4-isopropyl-2,7-naphthyridine-1-carboxamide] | < 15 nM | 20 to 30 nM | 
CC(=O)N1CC(C)(COc2ccc(C(C)C)c3cc(Nc4ccnc(N5CC[C@@H](O)[C@@](C)(F)C5)n4)ncc23)C1 [Example 7, 1-(3-(((3-((2-((3S,4R)-3-fluoro-4-hydroxy-3-methylpiperidin-1-yl)pyrimidin-4-yl)amino)-5-isopropylisoquinolin-8-yl)oxy)methyl)-3-methylazetidin-1-yl)ethan-1-one] | 15 to 20 nM | 30 to 50 nM | 
CO[C@H]1CCN(c2nccc(Nc3cc4c(C(C)C)ccc(OCCCNC(C)=O)c4cn3)n2)C[C@@H]1O (single isomer, unassigned) [Example 58, N-(3-((3-((2-((3S,4S)-3-hydroxy-4-methoxypiperidin-1-yl)pyrimidin-4-yl)amino)-5-isopropylisoquinolin-8-yl)oxy)propyl)acetamide or N-(3-((3-((2-((3R,4R)-3-hydroxy-4-methoxypiperidin-1-yl)pyrimidin-4-yl)amino)-5-isopropylisoquinolin-8-yl)oxy)propyl)acetamide] | < 15 nM | 20 to 30 nM | 
CC(C)c1ccc(OCCn2cnnc2)c2cnc(Nc3ccnc(N4CC[C@H]5COC[C@H]54)n3)cc12 (single isomer, unassigned) [Example 51] |  | > 50 nM | 20 to 30 nM
CC(C)c1cnc(C(=O)N[C@@H]2CN(C)C[C@H]2F)c2cnc(Nc3ccnc(N4CC[C@@H](O)[C@@](C)(F)C4)n3)cc12 (single isomer, unassigned) [Example 90] | < 15 nM | 10 to 20 nM | 
CC(C)c1ccc(OCCc2cncn2C)c2cnc(Nc3ccnc(N4CC[C@](C)(O)[C@H](F)C4)n3)cc12 [Example 38, (3R,4S)-3-fluoro-1-(4-((5-isopropyl-8-(2-(1-methyl-1H-imidazol-5-yl)ethoxy)isoquinolin-3-yl)amino)pyrimidin-2-yl)-4-methylpiperidin-4-ol] | 15 to 20 nM | > 50 nM | 
CC(C)c1cnc(C(=O)N[C@H]2CN(C)C[C@H]2F)c2cnc(Nc3ccnc(N4CC[C@@H](O)[C@@](C)(F)C4)n3)cc12 (single isomer, unassigned) [Example 88] |  | 10 to 20 nM | < 15 nM
[2H]C([2H])([2H])O[C@H]1CCN(c2nccc(Nc3cc4c(C(C)C)ccc(OCCn5cnnc5)c4cn3)n2)C[C@H]1F [Example 44, 8-(2-(4H-1,2,4-triazol-4-yl)ethoxy)-N-(2-((3R,4S)-3-fluoro-4-(methoxy-d3)piperidin-1-yl)pyrimidin-4-yl)-5-isopropylisoquinolin-3-amine] | 15 to 20 nM | > 50 nM | 
CCO[C@H]1C[C@H](NC(=O)c2ncc(C(C)C)c3cc(Nc4ccnc(N5CC[C@@H](O)[C@@](C)(F)C5)n4)ncc23)C1 [Example 84, N-((1r,3r)-3-ethoxycyclobutyl)-6-((2-((3S,4R)-3-fluoro-4-hydroxy-3-methylpiperidin-1-yl)pyrimidin-4-yl)amino)-4-isopropyl-2,7-naphthyridine-1-carboxamide] | < 15 nM | 20 to 30 nM | 
CC(C)c1ccc(OCCc2cnnn2C)c2cnc(Nc3ccnc(N4CC[C@](C)(O)[C@H](F)C4)n3)cc12 [Example 35, (3R,4S)-3-fluoro-1-(4-((5-isopropyl-8-(2-(1-methyl-1H-1,2,3-triazol-5-yl)ethoxy)isoquinolin-3-yl)amino)pyrimidin-2-yl)-4-methylpiperidin-4-ol] | 15 to 20 nM | 30 to 50 nM | 
[2H]C([2H])([2H])O[C@@H]1CCN(c2nccc(Nc3cc4c(C(C)C)ccc(OCCn5ccnc5)c4cn3)n2)C[C@@H]1F [Example 49, 8-(2-(1H-imidazol-1-yl)ethoxy)-N-(2-((3S,4R)-3-fluoro-4-(methoxy-d3)piperidin-1-yl)pyrimidin-4-yl)-5-isopropylisoquinolin-3-amine] | 15 to 20 nM | > 50 nM | 
CO[C@H]1CCN(c2nccc(Nc3cc4c(C(C)C)ccc(OCCn5cnnc5)c4cn3)n2)C[C@H]1F [Example 41, 8-(2-(4H-1,2,4-triazol-4-yl)ethoxy)-N-(2-((3R,4S)-3-fluoro-4-methoxypiperidin-1-yl)pyrimidin-4-yl)-5-isopropylisoquinolin-3-amine] | < 15 nM | 20 to 30 nM | 
CC(C)c1ccc(OC[C@@H](C)n2cnnc2)c2cnc(Nc3ccnc(N4CC[C@](C)(O)[C@H](F)C4)n3)cc12 [Example 37, (3R,4S)-1-(4-((8-((R)-2-(4H-1,2,4-triazol-4-yl)propoxy)-5-isopropylisoquinolin-3-yl)amino)pyrimidin-2-yl)-3-fluoro-4-methylpiperidin-4-ol] | 15 to 20 nM | 30 to 50 nM | 
Cc1noc(C)c1CCOc1ccc(C(C)C)c2cc(Nc3ccnc(N4CC[C@@H](OCCO)[C@@H](F)C4)n3)ncc12 [Example 43, 2-(((3S,4R)-1-(4-((8-(2-(3,5-dimethylisoxazol-4-yl)ethoxy)-5-isopropylisoquinolin-3-yl)amino)pyrimidin-2-yl)-3-fluoropiperidin-4-yl)oxy)ethan-1-ol] | 15 to 20 nM | > 50 nM | 
CC(C)c1ccc(OCCn2cncn2)c2cnc(Nc3ccnc(N4CC[C@](C)(O)[C@H](F)C4)n3)cc12 [Example 39, (3R,4S)-1-(4-((8-(2-(1H-1,2,4-triazol-1-yl)ethoxy)-5-isopropylisoquinolin-3-yl)amino)pyrimidin-2-yl)-3-fluoro-4-methylpiperidin-4-ol] | 15 to 20 nM | > 50 nM | 
